Reference: ChEMBL document CHEMBL2073782, “Comparative inhibitory effects of different compounds on rat oatpl (slc21a1)- and Oatp2 (Slc21a5)-mediated transport” (Pharm Res, 2002)

How the values were obtained:
Type in all cases: functional, cell-based
[1] = target: T1, Oatp1 (Solute carrier organic anion transporter family member 1A1) (Rattus norvegicus, UniProt P46720); assay: TP_TRANSPORTER: inhibition of E217betaG uptake (E217betaG: 0.1 uM, Verapamil: 1000 uM) in Oatp1-expressing LLC-PK1 cells; set-up: scale not given: the % may be the effect or the level left; conditions: pig, probe E217betaG, read-out: Activity
T1 sequence (P46720 whole entry): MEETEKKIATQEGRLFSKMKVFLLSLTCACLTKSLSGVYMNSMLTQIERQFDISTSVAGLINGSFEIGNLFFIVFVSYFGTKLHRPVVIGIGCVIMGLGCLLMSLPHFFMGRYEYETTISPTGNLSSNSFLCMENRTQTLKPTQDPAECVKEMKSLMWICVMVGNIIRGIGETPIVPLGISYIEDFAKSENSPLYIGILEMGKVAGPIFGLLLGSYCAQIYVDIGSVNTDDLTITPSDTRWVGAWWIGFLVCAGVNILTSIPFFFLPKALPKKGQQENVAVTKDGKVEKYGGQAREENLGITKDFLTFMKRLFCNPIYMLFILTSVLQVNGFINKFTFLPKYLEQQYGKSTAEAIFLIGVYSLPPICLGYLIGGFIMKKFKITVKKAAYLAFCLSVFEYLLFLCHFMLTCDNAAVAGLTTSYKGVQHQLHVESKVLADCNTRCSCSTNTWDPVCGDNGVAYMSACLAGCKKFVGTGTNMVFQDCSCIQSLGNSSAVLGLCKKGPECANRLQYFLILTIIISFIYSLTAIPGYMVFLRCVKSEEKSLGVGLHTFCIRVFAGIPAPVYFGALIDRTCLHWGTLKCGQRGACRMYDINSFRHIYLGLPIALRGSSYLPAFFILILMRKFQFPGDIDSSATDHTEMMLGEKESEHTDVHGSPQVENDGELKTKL

[2] = target: T2, Oatp2 (Solute carrier organic anion transporter family member 1A4) (Rattus norvegicus, UniProt O35913); assay: TP_TRANSPORTER: inhibition of Digoxin uptake (Digoxin: 0.05 uM, Verapamil: 1000 uM) in Oatp2-expressing LLC-PK1 cells; set-up: scale not given: the % may be the effect or the level left; conditions: pig, probe Digoxin, read-out: Activity
T2 sequence (O35913 whole entry): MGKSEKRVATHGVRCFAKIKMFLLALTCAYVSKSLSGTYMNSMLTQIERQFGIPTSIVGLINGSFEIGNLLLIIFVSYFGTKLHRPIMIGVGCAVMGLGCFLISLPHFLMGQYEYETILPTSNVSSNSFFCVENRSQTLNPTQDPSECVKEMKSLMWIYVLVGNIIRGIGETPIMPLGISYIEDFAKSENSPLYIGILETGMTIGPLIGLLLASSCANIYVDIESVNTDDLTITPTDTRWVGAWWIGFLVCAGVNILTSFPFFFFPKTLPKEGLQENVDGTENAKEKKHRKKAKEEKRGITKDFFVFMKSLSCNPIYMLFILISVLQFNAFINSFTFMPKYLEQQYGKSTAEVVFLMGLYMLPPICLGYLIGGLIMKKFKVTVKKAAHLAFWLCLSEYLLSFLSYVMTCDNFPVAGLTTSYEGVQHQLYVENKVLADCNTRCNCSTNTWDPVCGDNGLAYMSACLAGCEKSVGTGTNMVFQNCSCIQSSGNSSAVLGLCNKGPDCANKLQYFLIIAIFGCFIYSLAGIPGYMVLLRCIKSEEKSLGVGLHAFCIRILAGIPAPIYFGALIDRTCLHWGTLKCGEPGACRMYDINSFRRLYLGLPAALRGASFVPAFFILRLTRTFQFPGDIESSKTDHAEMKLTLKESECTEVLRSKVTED

[3] = target: T2, Oatp2 (Solute carrier organic anion transporter family member 1A4); assay: TP_TRANSPORTER: inhibition of Digoxin uptake (Digoxin: 0.05 uM, Corticosterone: 100 uM) in Oatp2-expressing LLC-PK1 cells; set-up: scale not given: the % may be the effect or the level left; conditions: pig, probe Digoxin, read-out: Activity
[4] = target: T2, Oatp2 (Solute carrier organic anion transporter family member 1A4); assay: TP_TRANSPORTER: inhibition of Digoxin uptake (Digoxin: 0.05 uM, Deoxycorticosterone: 100 uM) in Oatp2-expressing LLC-PK1 cells; set-up: scale not given: the % may be the effect or the level left; conditions: pig, probe Digoxin, read-out: Activity
[5] = target: T1, Oatp1 (Solute carrier organic anion transporter family member 1A1); assay: TP_TRANSPORTER: inhibition of E217betaG uptake (E217betaG: 0.1 uM, Deoxycorticosterone: 100 uM) in Oatp1-expressing LLC-PK1 cells; set-up: scale not given: the % may be the effect or the level left; conditions: pig, probe E217betaG, read-out: Activity
[6] = target: T2, Oatp2 (Solute carrier organic anion transporter family member 1A4); assay: TP_TRANSPORTER: inhibition of Digoxin uptake (Digoxin: 0.05 uM, Glibenclamide: 1000 uM) in Oatp2-expressing LLC-PK1 cells; set-up: scale not given: the % may be the effect or the level left; conditions: pig, probe Digoxin, read-out: Activity
[7] = target: T1, Oatp1 (Solute carrier organic anion transporter family member 1A1); assay: TP_TRANSPORTER: inhibition of E217betaG uptake (E217betaG: 0.1 uM, Glibenclamide: 1000 uM) in Oatp1-expressing LLC-PK1 cells; set-up: scale not given: the % may be the effect or the level left; conditions: pig, probe E217betaG, read-out: Activity
[8] = target: T3, Solute carrier organic anion transporter family member 1A1 (Rattus norvegicus, UniProt P46720); assay: TP_TRANSPORTER: inhibition of E217betaG uptake in Oatp1-expressing LLC-PK1 cells
T3 sequence (P46720 whole entry): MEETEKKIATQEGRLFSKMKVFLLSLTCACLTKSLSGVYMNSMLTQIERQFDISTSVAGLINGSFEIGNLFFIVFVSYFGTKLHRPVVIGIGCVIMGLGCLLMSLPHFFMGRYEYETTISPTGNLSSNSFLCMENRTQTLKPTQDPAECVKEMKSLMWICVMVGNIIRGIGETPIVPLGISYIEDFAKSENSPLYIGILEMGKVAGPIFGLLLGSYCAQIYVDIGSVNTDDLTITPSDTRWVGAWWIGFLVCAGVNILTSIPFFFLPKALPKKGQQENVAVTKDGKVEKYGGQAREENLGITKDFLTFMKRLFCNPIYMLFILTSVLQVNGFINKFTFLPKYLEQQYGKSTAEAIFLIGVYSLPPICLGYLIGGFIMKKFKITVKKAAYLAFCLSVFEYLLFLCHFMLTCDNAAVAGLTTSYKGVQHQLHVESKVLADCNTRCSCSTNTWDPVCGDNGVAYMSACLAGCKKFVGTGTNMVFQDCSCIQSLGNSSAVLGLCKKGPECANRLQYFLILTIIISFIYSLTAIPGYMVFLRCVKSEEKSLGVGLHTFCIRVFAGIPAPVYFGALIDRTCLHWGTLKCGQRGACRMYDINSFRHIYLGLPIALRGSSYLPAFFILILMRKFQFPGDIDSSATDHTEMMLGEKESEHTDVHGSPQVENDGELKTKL

[9] = target: T4, Solute carrier organic anion transporter family member 1A4 (Rattus norvegicus, UniProt O35913); assay: TP_TRANSPORTER: inhibition of Digoxin uptake in Oatp2-expressing LLC-PK1 cells
T4 sequence (O35913 whole entry): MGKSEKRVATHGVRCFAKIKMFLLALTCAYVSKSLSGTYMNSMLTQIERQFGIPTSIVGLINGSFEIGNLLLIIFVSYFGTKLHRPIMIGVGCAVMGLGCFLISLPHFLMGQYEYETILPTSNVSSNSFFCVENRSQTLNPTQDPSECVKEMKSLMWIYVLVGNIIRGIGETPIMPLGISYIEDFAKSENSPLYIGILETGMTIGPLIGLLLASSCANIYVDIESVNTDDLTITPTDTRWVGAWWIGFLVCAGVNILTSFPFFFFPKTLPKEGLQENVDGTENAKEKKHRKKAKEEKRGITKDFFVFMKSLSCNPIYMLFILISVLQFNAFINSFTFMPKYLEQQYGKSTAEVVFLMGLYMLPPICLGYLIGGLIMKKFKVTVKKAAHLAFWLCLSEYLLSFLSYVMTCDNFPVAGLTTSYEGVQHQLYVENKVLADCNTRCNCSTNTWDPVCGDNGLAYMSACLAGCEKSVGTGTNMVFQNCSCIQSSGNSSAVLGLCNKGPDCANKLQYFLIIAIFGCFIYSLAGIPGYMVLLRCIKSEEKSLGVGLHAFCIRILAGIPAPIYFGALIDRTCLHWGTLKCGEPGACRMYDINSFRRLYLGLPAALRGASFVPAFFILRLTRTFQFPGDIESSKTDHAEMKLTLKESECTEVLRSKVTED

[10] = target: T2, Oatp2 (Solute carrier organic anion transporter family member 1A4); assay: TP_TRANSPORTER: inhibition of Digoxin uptake (Digoxin: 0.05 uM, Indomethacin: 1000 uM) in Oatp2-expressing LLC-PK1 cells; set-up: scale not given: the % may be the effect or the level left; conditions: pig, probe Digoxin, read-out: Activity
[11] = target: T1, Oatp1 (Solute carrier organic anion transporter family member 1A1); assay: TP_TRANSPORTER: inhibition of E217betaG uptake (E217betaG: 0.1 uM, Indomethacin: 1000 uM) in Oatp1-expressing LLC-PK1 cells; set-up: scale not given: the % may be the effect or the level left; conditions: pig, probe E217betaG, read-out: Activity
[12] = target: T2, Oatp2 (Solute carrier organic anion transporter family member 1A4); assay: TP_TRANSPORTER: inhibition of Digoxin uptake (Digoxin: 0.05 uM, Ketoprofen: 1000 uM) in Oatp2-expressing LLC-PK1 cells; set-up: scale not given: the % may be the effect or the level left; conditions: pig, probe Digoxin, read-out: Activity
[13] = target: T1, Oatp1 (Solute carrier organic anion transporter family member 1A1); assay: TP_TRANSPORTER: inhibition of E217betaG uptake (E217betaG: 0.1 uM, Ketoprofen: 1000 uM) in Oatp1-expressing LLC-PK1 cells; set-up: scale not given: the % may be the effect or the level left; conditions: pig, probe E217betaG, read-out: Activity

**Q.** With `COc1ccc(CCN(C)CCCC(C#N)(c2ccc(OC)c(OC)c2)C(C)C)cc1OC` (stereo not drawn) as the compound, how does the activity at 1000 µM [1] read?
**A.** 3.93%

**Q.** What about the activity at 1000 µM [2] of the same compound?
**A.** 4.12%

**Q.** With `C[C@]12C[C@H](O)[C@H]3[C@@H](CCC4=CC(=O)CC[C@@]43C)[C@@H]1CC[C@@H]2C(=O)CO` [CORTICOSTERONE] as the compound, how does the activity at 100 µM [3] read?
**A.** 32.9%

**Q.** Which activity at 100 µM [4] does the source give for `C[C@]12CC[C@H]3[C@@H](CCC4=CC(=O)CC[C@@]43C)[C@@H]1CC[C@@H]2C(=O)CO` [DESOXYCORTICOSTERONE] here?
**A.** 13.6%

**Q.** And the activity at 100 µM [5]?
**A.** 1.34%

**Q.** For `COc1ccc(Cl)cc1C(=O)NCCc1ccc(S(=O)(=O)NC(=O)NC2CCCCC2)cc1` [GLYBURIDE], which activity at 1000 µM [6] is on record?
**A.** 1.61%

**Q.** And the activity at 1000 µM [7]?
**A.** 2.33%

**Q.** How did the Ki [8] turn out when `CC(C)Cc1ccc(C(C)C(=O)O)cc1` (stereo not drawn) [IBUPROFEN] was run?
**A.** 126 µM

**Q.** What about the Ki [9] of the same compound?
**A.** 2430 µM

**Q.** How did the activity at 1000 µM [10] turn out when `COc1ccc2c(c1)c(CC(=O)O)c(C)n2C(=O)c1ccc(Cl)cc1` [INDOMETHACIN] was run?
**A.** 14.3%

**Q.** What about the activity at 1000 µM [11] of the same compound?
**A.** 1.16%

**Q.** `CC(C(=O)O)c1cccc(C(=O)c2ccccc2)c1` (stereo not drawn) [KETOPROFEN] was tested. Which activity at 1000 µM [12] did it give?
**A.** 30.2%

**Q.** What about the activity at 1000 µM [13] of the same compound?
**A.** 6.89%
